Measurements from patent US12023319B2, “Carboxylic acid aromatic amides” (priority 2016, dated 2024).

Key:
[1] = test system: B6-Mice expressing the human B1 receptor; test: Mouse model for peritonitis (thioglycollate induced, peroxidase activity in lavage); assay type: in vivo; conditions: p.o. 30, 100 mg/kg, lavage 24 h after induction, significantly, FIG. 7
Experimental: 6. Mouse Model for Peritonitis
Black 6 (B6)-Mice expressing the human B1 receptor, lacking the murine B1 receptors which were specifically generated (B6-hBDKRB1 <tm1Arte>/N) and employed for a thioglycollate induced peritonitis model to test for effects of Bradykinin B1 receptor antagonism on peritoneal inflammation and related leukocyte trafficking which reflects the mode of actions underlying endometriosis.
Animals were treated p.o. with Compound Example 3 (doses: 30 mg/kg, 100 mg/kg) or respective vehicle (10% DMSO+90% phosphate buffered saline (PBS) alone 1 h before i.p. application of 1 ml 4% thioglycollate medium (in sterile PBS, matured for >4 weeks). The treatment with vehicle or Compund Example 3 was repeated 3 and 24 hours after induction of peritonitis. 24 h after peritonitis induction the animals were sacrificed and a lavage of peritoneal fluid performed. The resulting lavage is analysed for peroxidase enzyme activity which is reflecting number of activated neutrophils in the peritoneal cavity by peroxidase activity assay as follows:
Tetramethylbenzidine (TMB) dihydrochloride is used as a sensitive chromogen substrate for peroxidase. […]
Changes in optical densities (OD) are monitored in an ELISA plate-reader at 450 nm at 25° Celsius against the mixture of all solutions without the added sample homogenate. […]

male Lewis rats = test: In vivo adjuvant-induced arthritis (AIA) model; design: species or system rat
Text: 10. In Vivo Adjuvant-Induced Arthritis (AIA) Model
The AIA model is characterized by a rapid onset and progression to polyarticular inflammation. Following the injection of CFA, signs of arthritis usually develop between day 10 and day 14. Typically, the disease is severe and leads to permanent joint malformations, including ankylosis. Joint swelling, lymphocyte infiltration, and cartilage degradation are shared features with human autoimmune arthritis.
To determine the anti-inflammatory activity of the Compound Examples, they were examined for their in vivo efficacy in an arthritis model. For this purpose, male Lewis rats (about 100 to 125 g, Charles River Laboratories, Germany) were each administered 100 μl of a complete Freund's adjuvant (CFA) solution (M. tuberculosis H37Ra [Difo Lab, Cat. No. 231141] dissolved in Incomplete Freund's adjuvant [Difco Lab, Cat. No. 263910]) into the tailhead subcutaneously on day 0. There were n=8 rats in each group. Both, a healthy control group and a disease control group treated with the vehicle only were included in the study. Each control group was given oral (p.o. or PO) treatment only with the vehicle (5% DMSO/95% PBS) of the Compound Examples. The treatment with different dosages of the Compound Examples dissolved in the vehicle was conducted in a preventative manner, i.e. starting from day 0 and continued to day 20, the end of the study, by daily oral administration. On day 0, the starting condition of the animals was determined in terms of the disease activity scores (rating of the severity of arthritis based on a points system). Here, points were awarded according to the extent of joint inflammation from 0 to 4 for the presence of an erythema including joint swelling (0=none; 1=slight; 2=moderate; 3=distinct; 4=severe) for both hind paws and were summed up to a single value. […] In addition, the extent of joint swelling was detected by measuring the ankles of hind paws sagittal×transversal [in mm^2] using an automated caliper (Bayer AG, Germany). Next to this, the grip strength, as a measure for hyperalgesia, using an automated grip strength test meter (IITC Life Science Inc., USA) was evaluated.
Statistical analysis of obtained results for all parameters were done with one way Anova (ANOVA; Analysis of variance) and the comparison to the control group via multiple reference analysis (Dunnett-test).

[2] = test system: female Sprague Daley rats; test: Cyclophosphamide-induced overactive bladder and cystitis (rats); assay type: in vivo, rat
Text: 12. Cyclophosphamide-Induced Overactive Bladder and Cystitis (Rats)
The aim of this study was to test the efficacy of Compound Examples on overactive bladder as well as on interstitial cystitis and bladder pain syndrome in cyclophosphamide-treated rats.
The experimental setup is adapted to a previous described protocol (Lecci A et al, Br J Pharmacol 130: 331-38, 2000).
Strong presence and target induction of BDKRB1 in comparison to BDKRB2 has been verified by gene expression analysis in bladders removed from rats after cyclophosphamide (100 mg/kg and 150 mg/kg i.p.) induction in contrast to bladders of naïve, untreated rats. Immunohistochemistry confirmed the presence of BDKRB1 in bladders of rats after model induction, too.
Briefly, female Sprague Daley rats (˜200 g) were housed under normal conditions for laboratory rats in a 12:12-h light:dark cycle. Rats have been weighed, the tested Compound Examples were dissolved in relevant vehicle (e.g. DMSO/Water) (5/95) (v/v) and have been administrated by oral gavage in different concentrations one hour before application of cyclophosphamide (150 mg/kg) by i.p. injection. Additional 1.5 hours after cyclophosphamide administration each rat was transferred to a metabolic cage and voiding frequency has been recorded for the next 15 hours. Total amount of urine (ml) was collected via a plastic tube attached to the metabolic cages. The urine collecting tube was connected to a weight-sensitive sensor and a pressure transducer connected via an amplifier (ADIstruments) to the data acquisition software program (LabChart, ADInstruments) and a computer. […] At the end of the experiment rats have been weighed and killed under isoflurane anaesthesia and bladders have been removed and weighed. The bladders' wet weight was normalized to 100 g of body weight of each rat and analysis has been performed using GraphPad Prism 7 program.

Compound: O=C(O)c1cc(NC(=O)C2(c3ccc(C(F)(F)F)cc3F)CC2)ccc1-c1cnn(C2CCC2)c1 [Example 3, 2-(1-Cyclobutyl-1H-pyrazol-4-yl)-5-[({1-[2-fluoro-4-(trifluoromethyl)phenyl]cyclopropyl}carbonyl)amino]benzoic acid]
- signal specific for neutrophil influx into inflamed tissue (peroxidase activity) [1]: reduced
- dose-dependency in the adjuvant-induced arthritis (AIA) model (male Lewis rats; 60, 15 or 3 mg/kg QD p.o., day 0 to day 20): clear dose-dependency
- severity of rat AIA (male Lewis rats; oral treatment with 60 mg/kg once daily): significantly inhibited
- disease activity score (male Lewis rats; rat AIA model, oral once daily, FIG. 14A): reduction
- extent of joint swelling (male Lewis rats; rat AIA model, oral once daily, FIG. 14B): reduction
- grip strength (hyperalgesia) (male Lewis rats; rat AIA model, oral once daily, FIG. 15): increase
- bladder weight normalized to 100 g of body weight ([2]; 60 mg/kg, compared to vehicle treatment, FIG. 11): significantly reduced
- number of micturitions/hour ([2]; preventive single gavage 15 mg & 60 mg/kg, cyclophosphamide 150 mg/kg i.p., FIG. 9): efficacy on reducing
- AUC during the plateau phase of the micturition (4-10 hours after transfer to metabolic cages) ([2]; preventive single gavage, both tested dosages 15 mg & 60 mg/kg, FIG. 10): significantly reduced
